One assay has as its target SAP (Homo sapiens, UniProt P02743). The assay is described as follows: Circulating human SAP in human SAP transgenic mice, drug in drinking water. To be noted: drug in the drinking water. The assay is classed as in vivo, mouse. The arrangement: on circulating human SAP values in human SAP transgenic mice; from tissue; host or cells: plasma of human SAP transgenic mice. As for the experimental part:
(§1) Clearance from the amyloid deposits, catabolism and excretion of the human SAP tracer were monitored globally by whole body counting of the mice (left), and the total amount of mouse SAP in the amyloidotic organs was determined after killing the animals on day 5 (right). […] Immediately after the 15 minute bleed, two groups, one that had received human SAP and the other mouse SAP, received a single intraperitoneal injection of 5 mg of (R)-1-[6-(R)-2-Carboxy-pyrrolidin-1-yl]-6-oxo-hexanoyl]pyrrolidine-2-carboxylic acid (desapin). Tracer remaining in the circulation is expressed as the mean (SD) percentage of the amount at the 15 minute time point for each group. […] In one of each of the pairs of groups receiving mouse or human SAP respectively, the tracer had been mixed with (R)-1-[6-(R)-2-Carboxy-pyrrolidin-1-yl]-6-oxo-hexanoyl]pyrrolidine-2-carboxylic acid (desapin) and incubated in vitro before injection into the animals. Tracer remaining in the circulation is expressed as mean (SD) total radioactivity per gram of blood in each group. Bottom panel: effect of administration of (R)-1-[6-(R)-2-Carboxy-pyrrolidin-1-yl]-6-oxo-hexanoyl]pyrrolidine-2-carboxylic acid (desapin) in the drinking water at the concentrations shown, on circulating human SAP values in human SAP transgenic mice. Mice of approximately 20 g body weight consume about 3 ml water per day. […]

Assay [1] addresses serum amyloid P component (SAP) (Homo sapiens, UniProt P02743). As to the kind of experiment: Inhibition of SAP binding to amyloid fibrils in vitro. From the text:
A method for screening and testing inhibitors of serum amyloid P component (SAP) binding to amyloid fibrils in vitro was devised and used in collaboration with F Hoffmann-La Roche Ltd to identify a suitable lead molecule for drug development. A library of candidate compounds was screened accordingly. The subsequent collaborative medicinal chemistry programme led to synthesis of a family of dicarboxylic acid, pyrrolidone ring containing molecules, of which the most studied is (R)-1-[6-(R)-2-Carboxy-pyrrolidin-1-yl]-6-oxo-hexanoyl]pyrrolidine-2-carboxylic acid. This molecule and related compounds (EP-A-0915088) are modestly potent inhibitors of SAP binding to amyloid fibrils in vitro, with IC50 values around 0.5-1.0 μM.
Further studies determined that each of the following bis-D-Proline compounds were tested for their ability to deplete SAP in vivo as described above. Each of the compounds identified below successfully depleted SAP. In addition, certain of the compounds were further tested for in vitro inhibition of binding of SAP to amyloid fibrils in accordance with the protocol provided in EP 0915088 at page 10, as referenced above. The results are shown in the second column below, where applicable.

Another assay concerns the target T1, mouse SAP (Mus musculus, UniProt P12246).
T1 construct: all the endogenous mouse SAP in the deposits; from tissue; host or cells: mice in vivo: amyloidotic organs, or plasma of normal wild type mice
T1 sequence (P12246 21-224): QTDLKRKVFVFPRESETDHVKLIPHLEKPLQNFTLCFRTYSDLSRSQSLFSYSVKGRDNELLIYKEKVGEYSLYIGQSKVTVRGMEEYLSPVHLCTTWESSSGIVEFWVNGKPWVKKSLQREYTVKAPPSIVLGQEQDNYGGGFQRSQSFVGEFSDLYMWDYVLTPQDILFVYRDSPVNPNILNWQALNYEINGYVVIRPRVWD
As to the kind of experiment: Endogenous mouse SAP in amyloid deposits of mice with AA amyloidosis. The assay is classed as in vivo. As to the method:
as §1

The next assay addresses isolated pure human SAP (Homo sapiens, UniProt P02743). As to the kind of experiment: Size exclusion chromatography of isolated pure SAP mixed with drug. The assay is classed as binding. The following applies: for Elution volume / Molecular assembly: SAP. An excerpt:
SAP is a pentamer with 5 identical non-covalently associated protomers each bearing a single calcium dependent ligand binding site on one planar face, the binding (B) face, of the molecule (9). In the absence of calcium, human SAP forms stable decameric dimers, probably via A-face to A-face interactions (11). In the presence of calcium, isolated human SAP rapidly aggregates and precipitates, as a result of molecular lattice formation due to binding of the exposed carboxylate of the Glu167 residue on one SAP molecule by the calcium dependent ligand binding site of another SAP molecule (12,13). This autoaggregation of SAP is inhibited by other ligands to which SAP binds, and all the present inhibitors of SAP binding to amyloid fibrils were active in this respect. However we show here that the greater potency of (R)-1-[6-(R)-2-Carboxy-pyrrolidin-1-yl]-6-oxo-hexanoyl]pyrrolidine-2-carboxylic acid and related compounds, as inhibitors of SAP binding to amyloid fibrils in vitro, results from their capacity to cross link pairs of SAP molecules. The palindromic structure of (R)-1-[6-(R)-2-Carboxy-pyrrolidin-1-yl]-6-oxo-hexanoyl]pyrrolidine-2-carboxylic acid enables it to not only block the ligand binding sites on individual SAP protomers, but could also cross link pairs of pentameric SAP molecules to form B-B face to face decameric dimers.
C-reactive protein (CRP) is a pentraxin closely related to SAP. Samples of isolated pure human SAP or CRP were mixed with (R)-1-[6-(R)-2-Carboxy-pyrrolidin-1-yl]-6-oxo-hexanoyl]pyrrolidine-2-carboxylic acid at the molar ratios shown, with respect to pentraxin protomer, in physiological ionic strength Tris buffered saline pH 8.0, and analysed by size exclusion chromatography precisely as described previously (14). The mixtures and the column eluants contained either no calcium ions or 2 mM calcium, and the concentrations of drug appropriate to maintain the molar ratios indicated above. In the absence of a specific ligand to which it can bind, purified human SAP is insoluble in the presence of calcium and elutes as high molecular weight aggregates in the void volume of the column (14). However in the absence of calcium and ligand, isolated SAP alone forms stable decamers, providing an excellent marker for the elution volume of this molecular assembly (14). Human CRP is a stable pentamer either in the presence or absence of calcium and thus provides a robust marker for the elution position of that molecular form (14).
Background: Size exclusion chromatography separates by hydrodynamic size, large species first.

Setting [2] is: drug:protein 1:1, calcium present.
Where [3] appears, read: drug:protein 10:1, calcium present.
Setting [4] is: drug:protein 128:1, calcium present.

Broadly, the IC50 is the concentration that inhibits the measured activity by half.

Sequence of isolated pure human SAP (P02743 20-223): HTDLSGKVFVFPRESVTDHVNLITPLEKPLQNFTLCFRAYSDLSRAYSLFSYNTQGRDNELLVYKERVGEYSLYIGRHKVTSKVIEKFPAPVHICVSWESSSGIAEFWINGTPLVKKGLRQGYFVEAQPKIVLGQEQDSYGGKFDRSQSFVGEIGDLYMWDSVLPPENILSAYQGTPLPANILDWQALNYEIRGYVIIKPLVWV
Sequence of serum amyloid P component (SAP) (P02743 20-223): as above
Sequence of SAP (P02743 20-223): as above

Regarding `O=C(O)[C@H]1CCCN1C(=O)CCCCC(=O)N1CCC[C@@H]1C(=O)O` [(R)-1-[6-(R)-2-Carboxy-pyrrolidin-1-yl]-6-oxo-hexanoyl]pyrrolidine-2-carboxylic acid], the “Circulating human SAP” value at SAP is reported as “rapidly depleted”. Moreover, the “Potency as inhibitor of SAP binding to amyloid fibrils relative to original lead compound” value in assay [1] (compared with 1-(3-Mercapto-2-methyl-1-oxopropyl)-D-proline) is listed as “more potent inhibitors than the original lead compound”. Besides, the IC50 in assay [1] (read-out: IC50, inhibition of SAP binding to amyloid fibrils in vitro) is 500 to 1000 nM. Further, the “Removal of endogenous mouse SAP from amyloid deposits” value on mouse SAP (15 mg/kg/day, continuous infusion) is recorded as “removed all the mouse SAP”. Also, the “Dose required to dissociate any endogenous mouse SAP significantly” value at mouse SAP (continuous infusion for 5 days via osmotic pump) stood at 1.5 mg/kg/day. The “Molecular assembly of isolated SAP by gel filtration” value on isolated pure human SAP (128 fold or greater molar excess of drug) is “single pentameric form”; at isolated pure human SAP (ratios between equimolar and 100 fold molar excess of drug to SAP protomers), “all the SAP is decameric”. Further, the “Elution volume” value stood at 10.97 mL at isolated pure human SAP (setting [2]), 10.97 mL at isolated pure human SAP (setting [3]) and 12.55 mL at isolated pure human SAP (setting [4]). The values for the Molecular assembly entry on isolated pure human SAP (setting [2]), on isolated pure human SAP (setting [3]) and at isolated pure human SAP (setting [4]) were “Decamer”, “Decamer” and “Pentamer”, respectively.
